# In ChEMBL document CHEMBL1817658, “Synthesis and biological activity of optically active phenylbutenoid dimers” (J Nat Prod, 2011):
# Target: ATP-dependent translocase ABCB1 (Homo sapiens, UniProt P08183)
# Test: Inhibition of P-gp in human MCF7/ADR cells assessed as potentiation of daunomycin-induced cytotoxicity at 50 microM incubated for 2 hrs by SRB assay
# Assay type: cell-based
# Conditions: nci/adr-res; call rule not given here
# Sequence of ATP-dependent translocase ABCB1 (P08183 whole entry): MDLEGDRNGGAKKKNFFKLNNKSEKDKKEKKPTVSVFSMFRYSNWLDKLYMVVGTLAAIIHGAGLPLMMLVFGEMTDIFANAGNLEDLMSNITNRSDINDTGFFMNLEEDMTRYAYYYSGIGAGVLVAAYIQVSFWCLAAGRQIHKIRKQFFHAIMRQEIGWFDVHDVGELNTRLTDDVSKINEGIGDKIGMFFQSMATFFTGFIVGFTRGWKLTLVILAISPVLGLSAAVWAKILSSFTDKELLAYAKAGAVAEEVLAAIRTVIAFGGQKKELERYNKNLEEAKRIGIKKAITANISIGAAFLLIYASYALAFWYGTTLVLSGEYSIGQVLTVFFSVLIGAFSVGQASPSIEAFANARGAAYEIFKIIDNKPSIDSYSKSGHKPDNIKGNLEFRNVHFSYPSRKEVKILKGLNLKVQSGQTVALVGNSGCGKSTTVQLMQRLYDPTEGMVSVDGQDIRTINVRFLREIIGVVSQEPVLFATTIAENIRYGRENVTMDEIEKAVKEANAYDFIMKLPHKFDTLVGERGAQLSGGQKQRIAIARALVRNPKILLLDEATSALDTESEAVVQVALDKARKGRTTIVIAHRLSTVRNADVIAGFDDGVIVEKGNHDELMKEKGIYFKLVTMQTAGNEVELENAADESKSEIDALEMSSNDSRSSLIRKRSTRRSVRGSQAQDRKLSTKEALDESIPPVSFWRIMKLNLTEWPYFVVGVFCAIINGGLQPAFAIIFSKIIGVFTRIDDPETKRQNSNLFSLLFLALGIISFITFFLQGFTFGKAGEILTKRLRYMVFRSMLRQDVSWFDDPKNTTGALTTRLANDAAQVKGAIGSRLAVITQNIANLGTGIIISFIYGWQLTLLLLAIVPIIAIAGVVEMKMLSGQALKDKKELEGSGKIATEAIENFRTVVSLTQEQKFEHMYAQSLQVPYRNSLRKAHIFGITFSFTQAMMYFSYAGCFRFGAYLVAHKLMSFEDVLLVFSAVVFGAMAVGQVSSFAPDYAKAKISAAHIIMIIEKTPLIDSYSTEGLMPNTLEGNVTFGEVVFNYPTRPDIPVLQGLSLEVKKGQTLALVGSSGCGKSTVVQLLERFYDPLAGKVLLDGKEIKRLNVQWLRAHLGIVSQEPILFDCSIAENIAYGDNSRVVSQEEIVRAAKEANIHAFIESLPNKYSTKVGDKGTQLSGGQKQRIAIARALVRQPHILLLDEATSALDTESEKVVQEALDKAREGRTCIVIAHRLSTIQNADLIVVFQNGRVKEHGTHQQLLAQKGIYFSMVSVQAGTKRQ
row,SMILES,inhibition (INH)
1,COc1ccc(/C=C\[C@H]2CCC=C[C@@H]2c2ccc(OC)c(OC)c2)cc1OC,Active
2,COc1ccc(/C=C/[C@@H]2CCC=C[C@H]2c2ccc(OC)c(OC)c2)cc1OC,Active
3,COc1ccc(/C=C/[C@H]2CCC=C[C@@H]2c2ccc(OC)c(OC)c2)cc1OC,Active
